Converted amounts (≈) assume the structure as drawn.
Test: Aqueous solubility of photo-initiator
Type: physicochemical
Method: Pre-weighed silicone disks (approximately 0.7 cm in diameter, 0.2 cm in thickness) or cylindrical sections (approximately 0.5 cm in diameter, 1 cm in length) were incubated in a methanol solution of photo-initiator (BPB; or p-benzoyl benzoic acid, BBA) for 1 hour followed by air drying at about 40° C. for 2 hours. Samples were then suspended in vials containing 3 mL of aqueous monomer solution. When required, monomer solutions were saturated with BPB. The aqueous solubility of BPB was 4 μg/mL. All solutions were filtered through 0.22 μm pore filters prior to being flushed with nitrogen for 15 min. Vials were sealed with rubber septa and placed 2.5 cm beneath a pair of UVA bulbs (15 W ea.). Radiation intensity at the sample site was 3.8 mW/cm2 as determined by UV actinometry (16). After completion of the graft polymerization reaction, samples were briefly washed under running water with occasional scrubbing to remove any signs of adsorbed homopolymer. The remaining non-grafted material was removed by overnight incubation in 50% ethanol followed by a 4 hour incubation in water. Samples were dried in a 60° C. oven for 16 hours before their weights were determined using a microbalance. Quadruplicate samples of each treatment were analysed in all experiments.

SMILES: CC(C)(C)OOC(=O)c1ccc(C(=O)c2ccccc2)cc1 [BPB, p-benzoyl tert-butylperbenzoate]
- aqueous solubility: 4 µg/mL (≈ 13.4 µM)

Reference: patent US8840927B2, “Method of making anti-microbial polymeric surfaces” (Covalon Technologies Inc., priority 2001, dated 2014)
